Reference: patent US12509444B2, “Compounds and methods for CD73 modulation and indications therefor” (Plexxikon Inc., priority 2019, dated 2025)

Columns and labels:
[1] = target: T1, Human CD73 (amino acid residues 27-549) (Homo sapiens, UniProt P21589); assay: CD73 enzymatic assay (luciferase-based indirect assay, CellTiter-Glo); format: biochemical; details: 0.4 nM CD73, 150 μM AMP, 1 hour at room temperature
T1 construct: Human CD73 (amino acid residues 27-549); His tag (N); made in house; host or cells: E. coli
T1 sequence (P21589 27-549): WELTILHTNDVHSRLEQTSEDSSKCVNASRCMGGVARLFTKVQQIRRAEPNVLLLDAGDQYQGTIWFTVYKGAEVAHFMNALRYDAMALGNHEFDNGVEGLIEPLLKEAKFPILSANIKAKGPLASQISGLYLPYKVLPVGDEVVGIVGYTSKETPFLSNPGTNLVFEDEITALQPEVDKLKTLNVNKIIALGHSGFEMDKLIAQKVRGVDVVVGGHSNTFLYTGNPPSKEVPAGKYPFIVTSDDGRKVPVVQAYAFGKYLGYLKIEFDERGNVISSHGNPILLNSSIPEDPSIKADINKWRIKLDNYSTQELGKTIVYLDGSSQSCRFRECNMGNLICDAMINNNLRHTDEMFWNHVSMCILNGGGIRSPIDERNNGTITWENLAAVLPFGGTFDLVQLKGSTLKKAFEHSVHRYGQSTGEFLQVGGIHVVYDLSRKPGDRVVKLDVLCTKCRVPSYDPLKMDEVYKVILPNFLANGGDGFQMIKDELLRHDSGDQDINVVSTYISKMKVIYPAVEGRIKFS
Method in brief: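 His-tagged human CD73 (27-549) from E. coli, 0.4 nM, with 150 μM AMP in 50 mM HEPES pH 7.4, 0.01% Tween 20; 1 h at room temperature. AMP remaining read by CellTiter-Glo 2.0 luminescence with 1 μM final ATP after 30 min. IC50 from nonlinear regression of % inhibition.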

[2] = target: T2, human CD73 (Homo sapiens, UniProt P21589); assay: Inhibitor activity against CD73 in cell based assay (CD73 expressing CHO-K1 cells); details: CHO-K1 cells expressing human CD73, 150 μM AMP, 4 hours of incubation; read-out: CHO-K1 CELL VARIANT: CD73 IC50
T2 construct: expressed in transfected cells
T2 sequence (P21589 27-549): T1 sequence (P21589 27-549)
Method in brief: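 Stably transfected CHO-K1 cells expressing human CD73 (1×10^4/well) incubated 4 h with compound (8-point 1:3 titration, top 10 μM final, 0.2% DMSO) and 150 μM AMP. Residual AMP in supernatant measured by CellTiter-Glo luminescence with 1 μM ATP after 30 min at room temperature; IC50 by nonlinear regression of percent inhibition vs high/low controls.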

IC50 [1] | IC50 [2] | Structure (SMILES)
0.001 to 10 µM | 0.001 to 10 µM | O=C(NC1C2CCC1CC(O)C2)O[C@@H]1CCN(c2cn[nH]c(=O)c2Cl)C1 (stereo partly drawn) [P-0423, (R)-1-(5-chloro-6-oxo-1,6-dihydropyridazin-4-yl)pyrrolidin-3-yl (3-hydroxybicyclo[3.2.1]octan-8-yl)carbamate]
0.001 to 10 µM | 0.001 to 10 µM | O=C(NC1CCCC(F)(F)C1)O[C@@H]1CCN(c2cn[nH]c(=O)c2Cl)C1 (stereo partly drawn) [P-0424, (R)-1-(5-chloro-6-oxo-1,6-dihydropyridazin-4-yl)pyrrolidin-3-yl (3,3-difluorocyclohexyl)carbamate]
0.001 to 10 µM | 0.001 to 10 µM | CC1CCCC(NC(=O)O[C@@H]2CCN(c3cn[nH]c(=O)c3Cl)C2)C1 (stereo partly drawn) [P-0425, (R)-1-(5-chloro-6-oxo-1,6-dihydropyridazin-4-yl)pyrrolidin-3-yl (3-methylcyclohexyl)carbamate]
0.001 to 10 µM | 0.001 to 10 µM | O=C(NC1CCCC12CC2)O[C@@H]1CCN(c2cn[nH]c(=O)c2Cl)C1 (stereo partly drawn) [P-0426, (R)-1-(5-chloro-6-oxo-1,6-dihydropyridazin-4-yl)pyrrolidin-3-yl spiro[2.4]heptan-4-ylcarbamate]
0.001 to 10 µM | 0.001 to 10 µM | N#CC12CC(NC(=O)O[C@@H]3CCN(c4cn[nH]c(=O)c4Cl)C3)(C1)C2 [P-0427, (R)-1-(5-chloro-6-oxo-1,6-dihydropyridazin-4-yl)pyrrolidin-3-yl (3-cyanobicyclo[1.1.1]pentan-1-yl)carbamate]
0.001 to 10 µM | 0.001 to 10 µM | O=C(NC12CC(C1)C2)O[C@@H]1CCN(c2cn[nH]c(=O)c2Cl)C1 [P-0428, (R)-1-(5-chloro-6-oxo-1,6-dihydropyridazin-4-yl)pyrrolidin-3-yl bicyclo[1.1.1]pentan-1-ylcarbamate]
0.001 to 10 µM | 0.001 to 10 µM | O=C(NC1(CO)CCCC1)O[C@@H]1CCN(c2cn[nH]c(=O)c2Cl)C1 [P-0429, (R)-1-(5-chloro-6-oxo-1,6-dihydropyridazin-4-yl)pyrrolidin-3-yl (1-(hydroxymethyl)cyclopentyl) carbamate]
0.001 to 10 µM | 10 to 100 µM | O=C(Cn1ncc(N2CC[C@@H](OC(=O)NC3CCC(F)(F)CC3)C2)c(Cl)c1=O)NO [P-0430, (R)-1-(5-chloro-1-(2-(hydroxyamino)-2-oxoethyl)-6-oxo-1,6-dihydropyridazin-4-yl)pyrrolidin-3-yl (4,4-difluorocyclohexyl)carbamate]
0.001 to 10 µM | 0.001 to 10 µM | O=C(NC1CC(F)(F)C1)O[C@@H]1CCN(c2cnn(CCO)c(=O)c2Cl)C1 [P-0431, (R)-1-(5-chloro-1-(2-hydroxyethyl)-6-oxo-1,6-dihydropyridazin-4-yl)pyrrolidin-3-yl (3,3-difluorocyclobutyl)carbamate]
0.001 to 10 µM | 0.001 to 10 µM | CC1(NC(=O)O[C@@H]2CCN(c3cn[nH]c(=O)c3Cl)C2)CC(F)(F)C1 [P-0432, (R)-1-(5-chloro-6-oxo-1,6-dihydropyridazin-4-yl)pyrrolidin-3-yl (3,3-difluoro-1-methylcyclobutyl)carbamate]
0.001 to 10 µM | 0.001 to 10 µM | O=C(NC12CC(F)(C1)C2)O[C@@H]1CCN(c2cn[nH]c(=O)c2Cl)C1 [P-0433, (R)-1-(5-chloro-6-oxo-1,6-dihydropyridazin-4-yl)pyrrolidin-3-yl (3-fluorobicyclo[1.1.1]pentan-1-yl)carbamate]
0.001 to 10 µM | 0.001 to 10 µM | O=C(N[C@H]1CC[C@@H](NC2CCC2)CC1)O[C@@H]1CCN(c2cn[nH]c(=O)c2Cl)C1 [P-0434, (R)-1-(5-chloro-6-oxo-1,6-dihydropyridazin-4-yl)pyrrolidin-3-yl ((1s,4S)-4-(cyclobutylamino)cyclohexyl) carbamate]
0.001 to 10 µM | 0.001 to 10 µM | NCCn1ncc(N2CC[C@@H](OC(=O)N[C@H]3CC[C@@H](NC(=O)NC4CC4)CC3)C2)c(Cl)c1=O [P-0435, (R)-1-(1-(2-aminoethyl)-5-chloro-6-oxo-1,6-dihydropyridazin-4-yl)pyrrolidin-3-yl ((1s,4S)-4-(3-cyclopropylureido)cyclohexyl) carbamate]
